Data as given in US20250304623A1, “PEPTIDES FOR INTRACELLULAR DELIVERY” (UNIVERSIDADE DE SANTIAGO DE COMPOSTELA, priority 2022, published 2025).
*: point of attachment. NHNH2 = NN*

Assays:
Type in all cases: cell-based
[1] = test system: HCT116 cells; assay: RLuc pDNA delivery, robotic library screening, HCT116
[2] = test system: ARPE19 cells expressing EGFP; assay: EGFP-targeting siRNA delivery (GFP silencing vs siMOCK), ARPE19
Outline: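 This siRNA delivery assay used stably EGFP-expressing cells seeded a day ahead in 96-well plates. siGFP and amphiphile were combined in DMEM at a constant 30 nM siRNA, incubated 30 min at room temperature, then applied for 4 h before switching to fresh DMEM with 10% FBS. After 72 h, a plate reader measured fluorescence decrease relative to non-targeting siMOCK, subtracting untreated background.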

[3] = test system: ARPE19 cells expressing EGFP; assay: Cas9-RNP delivery against EGFP (gene editing, plate reader), ARPE19
Outline: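 EGFP-expressing cells, generated by stable transfection with EGFP pDNA and G-418 selection, were plated in 96-well plates at 50,000 cell/mL (100 μL/w) in DMEM+10% FBS+1% Gln-Abt. Cas9-RNP targeting EGFP was complexed with amphiphile for 30 min, applied for 4 h at 50 nM RNP, and EGFP fluorescence was read on a plate reader after 72 h.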

[4] = test system: A549 cells expressing EGFP; assay: EGFP-targeting siRNA delivery (GFP silencing vs siMOCK), A549; details: for percentage of GFP-silencing relative to siMOCK: A549 cells
[5] = test system: HepG2 cells expressing EGFP; assay: EGFP-targeting siRNA delivery (GFP silencing vs siMOCK), HepG2
Outline: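 After 72 h, a plate reader measured EGFP fluorescence in HepG2 EGFP cells transfected with amphiphile/siRNA complexes (30 nM siGFP). Silencing was expressed as percent fluorescence decrease relative to cells given non-targeting siMOCK, with untreated-cell background subtracted. Triplicate means were reported, and Lipofectamine RNAiMAX served as a comparison.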

[6] = test system: HepG2 cells expressing EGFP; assay: Cas9-RNP delivery against EGFP (gene editing, plate reader), HepG2
Outline: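 Gene editing in EGFP-expressing HepG2 cells was estimated as the percentage drop in GFP fluorescence, measured in triplicate on a plate reader 72 h after Cas9-RNP delivery with amphiphiles. The RNP was made from annealed crRNA/tracrRNA plus 4 μM Cas9 and complexed with amphiphile before a 4 h exposure. Background from untreated control cells was subtracted.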

[7] = test system: ARPE19 cells; assay: RLuc pDNA delivery, robotic library screening, ARPE19

## Ac-RK*LRRK*LRK*-NH2 (Ac-RK(NHNH2)LRRK(NHNH2)LRK(NHNH2)-NH2; not fully specified; printed as Ac-RK*LRRK*LRK*-NH2; also: K*2,K*6,K*9: native or modified lysine (ε-amide to a linker)) [Peptide 9.3]
[1]; Dodecanal, 10 μM
  mean luminescent intensity (RLuc pDNA): 1466 RLU
[1]; Dodecanal, 15 μM
  mean luminescent intensity (RLuc pDNA): 1854 RLU
[1]; Myristoleyl, 5 μM
  mean luminescent intensity (RLuc pDNA): 16615 RLU
[1]; Myristoleyl, 10 μM
  mean luminescent intensity (RLuc pDNA): 58572 RLU
[1]; Myristoleyl, 15 μM
  mean luminescent intensity (RLuc pDNA): 19746 RLU
[1]; Oleyl, 15 μM
  mean luminescent intensity (RLuc pDNA): 1940 RLU
[1]; Palmitoleyl, 15 μM
  mean luminescent intensity (RLuc pDNA): 141026 RLU
[1]; Petroselinyl, 5 μM
  mean luminescent intensity (RLuc pDNA): 30301 RLU
[1]; Petroselinyl, 10 μM
  mean luminescent intensity (RLuc pDNA): 113431 RLU
[1]; Petroselinyl, 15 μM
  mean luminescent intensity (RLuc pDNA): 76316 RLU
[2]; Dodecanal, 5 μM
  percentage of GFP-silencing relative to siMOCK: 57%
[2]; Dodecanal, 10 μM
  percentage of GFP-silencing relative to siMOCK: 57%
[2]; Dodecanal, 15 μM
  percentage of GFP-silencing relative to siMOCK: 34%
[2]; Myristoleyl, 5 μM
  percentage of GFP-silencing relative to siMOCK: 47%
[2]; Oleyl, 5 μM
  percentage of GFP-silencing relative to siMOCK: 20%
[2]; Oleyl, 10 μM
  percentage of GFP-silencing relative to siMOCK: 55%
[2]; Oleyl, 15 μM
  percentage of GFP-silencing relative to siMOCK: 51%
[2]; Palmitoleyl, 5 μM
  percentage of GFP-silencing relative to siMOCK: 51%
[2]; Palmitoleyl, 10 μM
  percentage of GFP-silencing relative to siMOCK: 30%
[2]; Palmitoleyl, 15 μM
  percentage of GFP-silencing relative to siMOCK: 11%
[2]; Petroselinyl, 5 μM
  percentage of GFP-silencing relative to siMOCK: 18%
[2]; Petroselinyl, 10 μM
  percentage of GFP-silencing relative to siMOCK: 49%
[2]; Petroselinyl, 15 μM
  percentage of GFP-silencing relative to siMOCK: 52%
[3]; Dodecanal, 5 μM
  percentage of gene editing, GFP fluorescence intensity decrease (% of reduction): 5%
[3]; Dodecanal, 15 μM
  percentage of gene editing, GFP fluorescence intensity decrease (% of reduction): −14%
[3]; Myristoleyl, 15 μM
  percentage of gene editing, GFP fluorescence intensity decrease (% of reduction): −25%
[3]; Oleyl, 10 μM
  percentage of gene editing, GFP fluorescence intensity decrease (% of reduction): 23%
[3]; Oleyl, 15 μM
  percentage of gene editing, GFP fluorescence intensity decrease (% of reduction): 22%
[3]; Palmitoleyl, 5 μM
  percentage of gene editing, GFP fluorescence intensity decrease (% of reduction): 3%
[3]; Palmitoleyl, 15 μM
  percentage of gene editing, GFP fluorescence intensity decrease (% of reduction): 8%
[3]; Petroselinyl, 15 μM
  percentage of gene editing, GFP fluorescence intensity decrease (% of reduction): −2%
[4]; A549, amphiphile 5 μM, hydrophobic tail, palmitoleyl hydrophobic tail
  siRNA % fluorescence reduction vs siMOCK: 75%
[4]; Dodecanal, 5 μM
  percentage of GFP-silencing relative to siMOCK: 35%
[4]; Dodecanal, 10 μM
  percentage of GFP-silencing relative to siMOCK: 35%
[4]; Dodecanal, 15 μM
  percentage of GFP-silencing relative to siMOCK: 55%
[4]; Myristoleyl, 5 μM
  percentage of GFP-silencing relative to siMOCK: 34%
[4]; Myristoleyl, 10 μM
  percentage of GFP-silencing relative to siMOCK: 58%
[4]; Myristoleyl, 15 μM
  percentage of GFP-silencing relative to siMOCK: 23%
[4]; Oleyl, 10 μM
  percentage of GFP-silencing relative to siMOCK: 32%
[4]; Oleyl, 15 μM
  percentage of GFP-silencing relative to siMOCK: 28%
[4]; Palmitoleyl, 5 μM
  percentage of GFP-silencing relative to siMOCK: 42%
[4]; Palmitoleyl, 10 μM
  percentage of GFP-silencing relative to siMOCK: 75%
[4]; Palmitoleyl, 15 μM
  percentage of GFP-silencing relative to siMOCK: 64%
[4]; Petroselinyl, 5 μM
  percentage of GFP-silencing relative to siMOCK: 6%
[4]; Petroselinyl, 10 μM
  percentage of GFP-silencing relative to siMOCK: 58%
[4]; Petroselinyl, 15 μM
  percentage of GFP-silencing relative to siMOCK: 75%
[5]; Myristoleyl, 5 μM
  percentage of GFP-silencing relative to siMOCK: −11%
[5]; Myristoleyl, 15 μM
  percentage of GFP-silencing relative to siMOCK: 6%
[5]; Oleyl, 10 μM
  percentage of GFP-silencing relative to siMOCK: −9%
[5]; Palmitoleyl, 5 μM
  percentage of GFP-silencing relative to siMOCK: −2%
[5]; Palmitoleyl, 15 μM
  percentage of GFP-silencing relative to siMOCK: −2%
[5]; Petroselinyl, 15 μM
  percentage of GFP-silencing relative to siMOCK: −3%
[6]; Dodecanal, 10 μM
  percentage of gene editing, GFP fluorescence intensity decrease (% of reduction): −29%
[6]; Dodecanal, 15 μM
  percentage of gene editing, GFP fluorescence intensity decrease (% of reduction): −26%
[6]; Myristoleyl, 10 μM
  percentage of gene editing, GFP fluorescence intensity decrease (% of reduction): −5%
[6]; Oleyl, 5 μM
  percentage of gene editing, GFP fluorescence intensity decrease (% of reduction): −10%
[6]; Oleyl, 10 μM
  percentage of gene editing, GFP fluorescence intensity decrease (% of reduction): 3%
[6]; Petroselinyl, 5 μM
  percentage of gene editing, GFP fluorescence intensity decrease (% of reduction): −24%
[6]; Petroselinyl, 10 μM
  percentage of gene editing, GFP fluorescence intensity decrease (% of reduction): −19%
[7]; Myristoleyl, 5 μM
  mean luminescent intensity (RLuc pDNA): 1400 RLU
[7]; Myristoleyl, 10 μM
  mean luminescent intensity (RLuc pDNA): 6498 RLU
[7]; Myristoleyl, 15 μM
  mean luminescent intensity (RLuc pDNA): 1695 RLU
[7]; Palmitoleyl, 15 μM
  mean luminescent intensity (RLuc pDNA): 7259 RLU
[7]; Petroselinyl, 5 μM
  mean luminescent intensity (RLuc pDNA): 1052 RLU
[7]; Petroselinyl, 10 μM
  mean luminescent intensity (RLuc pDNA): 39447 RLU
[7]; Petroselinyl, 15 μM
  mean luminescent intensity (RLuc pDNA): 55918 RLU
